For 20 compounds, IC50 results are on record in US20250145632A1, “Pyrimidine Heterocyclic Compound, Preparation Method Thereof and use Thereof in Medicine” (INSILICO MEDICINE IP LIMITED, priority 2021, published 2025).

For assay [1], the system named is OVCAR-3 human ovarian adenocarcinoma cells. Description: OVCAR-3 tumor cell proliferation inhibition (CellTiter-Glo). It counts as cell-based. The settings on record: 3 d culture. As for the experimental part:
OVCAR-3 was purchased from ATCC; article No.: HTB-161; RPMI1640 was purchased from Gibco; article No.: 11875-093; Pancreatin (including EDTA) was purchased from Gibco; article No.: 25200-072; FBS was purchased from Gibco; Article No.: 10091-148; CellTiter-Glo was purchased from Promega; article No.: G7573; Bovine insulin was purchased from absin; article No.: abs9169; DMSO was purchased from VWR AMRESCO; article No.: 0231-500ML; Staurosporine was purchased from Selleck; article No.: S1421; a cell counter was purchased from CHEMOMETEC; model: NC-200; and a microplate reader was purchased from PerkinElmer; Model: Envison.
(§1) OVCAR-3 was human ovarian adenocarcinoma cells cultured in an RPMI-1640 culture medium containing 20% FBS and 0.01 mg/mL of Bovine insulin. Cells in logarithmic phase were taken, and the cells were subjected to digesting, collecting and counting with pancreatin-EDTA, 2000 OVCAR-3 cells/well were inoculated in a 384-well cell plate, and were cultured in 5% CO2 overnight. A 1000× compound stock solution with 3.16 times of gradient concentration was prepared with DMSO, and was diluted 100 times to 10× compound stock solution with a culture medium, and 10× compound stock solution was added into each cell culture well on the next day after cell inoculation, wherein the final concentration was 1×, and the DMSO content was 0.1%. The cell group was treated with DMSO as an experimental control (control), and the cell group was treated with 5 μM of Staurosporine as a blank control (blank).
In general terms: Cellular ATP, detected with luciferase, serves as a proxy for viable cell number.

Assay [2] deals with HCC70 human breast ductal cancer cells. Description: HCC70 tumor cell proliferation inhibition (CellTiter-Glo). It counts as cell-based. The note with it: 3 d culture. On the procedure:
HCC70 was purchased from ATCC; article No.: CRL-2315; RPMI1640 was purchased from Gibco; article No.: 11875-093; Pancreatin (including EDTA) was purchased from Gibco; article No.: 25200-072; FBS was purchased from Gibco; article No.: 10099-141C; CellTiter-Glo was purchased from Promega; article No.: G7573; DMSO was purchased from VWR AMRESCO; article No.: 0231-500ML; Staurosporine was purchased from Selleck; article No.: S1421; a cell counter was purchased from CHEMOMETEC; model: NC-200; and a microplate reader was purchased from PerkinElmer; Model: Envison.
as §1, with “HCC70” for “OVCAR-3”, “breast ductal cancer” for “ovarian adenocarcinoma”, “10% FBS.” for “20% FBS and 0.01 mg/mL of Bovine insulin.”

In the case of `CN1CCCCN(C)[C@H]2CC[C@@H](C2)Nc2ncc(C(F)(F)F)c(n2)-c2c[nH]c3c(C#N)c(ccc23)C1=O` [Compound Z84, (4^1S,4^3S)-5,10-dimethyl-11-oxo-2^5-(trifluoromethyl)-1^1H-3,5,10-triaza-1(3,6)-indola-2(4,2)-pyrimidina-4(1,3)-cyclopentanacycloundecaphane-1^7-carbonitrile], the IC50 in assay [1] came to 198 nM; in assay [2], 263 nM.
Regarding “(4^3S)-1^7-(dimethylphosphoryl)-2^5-(trifluoromethyl)-1^1H-3,11-diaza-1(3,6)-indola-2(4,2)-pyrimidina-4(3,1)-piperidinacyclododecaphan-12-one [Compound Z61]”, in assay [2], the IC50 is 390 nM.
Still for that read-out and setting: to `CP(C)(=O)c1c2ccc3c(c[nH]c13)-c1nc(ncc1C(F)(F)F)N[C@H]1CC[C@@H](C1)NCCCCCCNC2=O` [Compound Z59, (4^1S,4^3S)-1^7-(dimethylphosphoryl)-2^5-(trifluoromethyl)-1^1H-3,5,12-triaza-1(3,6)-indola-2(4,2)-pyrimidina-4(1,3)-cyclopentanacyclotridecaphan-13-one] belongs 422 nM.
With `CN1CCOCCN(C)[C@H]2CC[C@@H](C2)Nc2ncc(C(F)(F)F)c(n2)-c2ccc3c(c[nH]c3n2)C1=O` [Compound Z91, (4^1S,4^3S)-5,11-dimethyl-2^5-(trifluoromethyl)-1^1H-8-oxa-3,5,11-triaza-1(3,6)-pyrrolo[2,3-b]pyridina-2(4,2)-pyrimidina-4(1,3)-cyclopentanacyclododecaphan-12-one], the figures for the IC50 in assay [1] and in assay [2] were 811 nM and 438 nM, respectively.
Take `CN1CC(F)(F)CCNC2CC[C@@H](C2)Nc2ncc(C(F)(F)F)c(n2)-c2c[nH]c3c(P(C)(C)=O)c(ccc23)C1=O` [Compound Z66, (41 S,4^3S)-1^7-(dimethylphosphoryl)-8,8-difluoro-10-methyl-2^5-(trifluoromethyl)-1^1H-3,5,10-triaza-1(3,6)-indola-2(4,2)-pyrimidina-4(1,3)-cyclopentanacycloundecaphan-11-one]: the values for the IC50 in assay [1] and in assay [2] were 21.2 nM and 10.5 nM, respectively.
In assay [2], `CP(C)(=O)c1c2ccc3c(c[nH]c13)-c1nc(ncc1C(F)(F)F)N[C@H]1CC[C@@H](C1)NCCC(F)(F)CNC2=O` [Compound Z19, (4^1S,43S)-17-(dimethylphosphoryl)-8,8-difluoro-2^5-(trifluoromethyl)-1^1H-3,5,10-triaza-1(3,6)-indola-2(4,2)-pyrimidina-4(1,3)-cyclopentanacycloundecaphan-11-one] displayed an IC50 of 15.4 nM.
Consider `CN1C[C@H](F)CCN[C@H]2CC[C@@H](C2)Nc2ncc(C(F)(F)F)c(n2)-c2c[nH]c3c(P(C)(C)=O)c(ccc23)C1=O` (single isomer, unassigned) [Compound Z76], for which the IC50 stood at 31.5 nM in assay [1] and 21.9 nM in assay [2].
Take `CP(C)(=O)c1c2ccc3c(c[nH]c13)-c1nc(ncc1C(F)(F)F)N[C@H]1CC[C@@H](C1)NCCCNC2=O` [Compound Z10, (4^1S, 4^3S)-1^7-(dimethylphosphoryl)-2^5-(trifluoromethyl)-1^1H-3,5,9-triaza-1(3,6)-indola-2(4,2)-pyrimidina-4(1,3)-cyclopentanacyclodecaphan-10-one]: the IC50 in assay [2] was 162 nM.
For the compound `CN1CCOCCN[C@H]2CC[C@@H](C2)Nc2ncc(C(F)(F)F)c(n2)-c2c[nH]c3c(P(C)(C)=O)c(ccc23)C1=O` [Compound Z64, (4^1S,4^3S)-1^7-(dimethylphosphoryl)-11-methyl-2^5-(trifluoromethyl)-1^1H-8-oxa-3,5,11-triaza-1(3,6)-indola-2(4,2)-pyrimidina-4(1,3)-cyclopentanacyclododecaphan-12-one], the results for the 50% inhibitory concentration (IC50) in assay [1] and in assay [2] were 98.6 nM and 42.8 nM, respectively.
In turn, `CC1CCCNC(=O)c2ccc3c(c[nH]c3c2P(C)(C)=O)-c2nc(ncc2C(F)(F)F)N[C@H]2CC[C@@H](C2)N1` (some centres unmarked) [Compound Z58, (4^1S,4^3S)-1^7-(dimethylphosphoryl)-6-methyl-2^5-(trifluoromethyl)-1^1H-3,5,10-triaza-1(3,6)-indola-2(4,2)-pyrimidina-4(1,3)-cyclopentanacycloundecaphan-11-one] yielded an IC50 in assay [2] of 233 nM. In other words, the sub-micromolar range.
As to `CP(C)(=O)c1c2ccc3c(c[nH]c13)-c1nc(ncc1C(F)(F)F)N[C@H]1CC[C@@H](C1)NCC[C@@H](F)CNC2=O` (single isomer, unassigned) [Compound Z68-1], the figures for the IC50 in assay [1] and in assay [2] were 35.8 nM and 10.3 nM, respectively.
`CP(C)(=O)c1c2ccc3c(c[nH]c13)-c1nc(ncc1C(F)(F)F)N[C@H]1CC[C@@H](C1)NCCCCCNC2=O` [Compound Z6, (41 S,4^3S)-1^7-(dimethylphosphoryl)-2^5-(trifluoromethyl)-1^1H-3,5,11-triaza-1(3,6)-indola-2(4,2)-pyrimidina-4(1,3)-cyclopentanacyclododecaphan-12-one] gave a concentration for half-maximal inhibition (IC50) in assay [2] of 222 nM.
Same read-out and setting: to `CN1CCC(F)CN(C)C2CC[C@@H](C2)Nc2ncc(C(F)(F)F)c(n2)-c2c[nH]c3c(P(C)(C)=O)c(ccc23)C1=O` (some centres unmarked) [Compound Z87, (4^1S)-1^7-(dimethylphosphoryl)-7-fluoro-5,10-dimethyl-2^5-(trifluoromethyl)-1^1H-3,5,10-triaza-1(3,6)-indola-2(4,2)-pyrimidina-4(1,3)-cyclopentanacycloundecaphan-11-one] belongs 243 nM; to `CP(C)(=O)c1c2ccc3c(c[nH]c13)-c1nc(ncc1C(F)(F)F)N[C@H]1CCC[C@@H](C1)NCCCCNC2=O` [Compound Z9, (4^1S,4^3S)-1^7-(dimethylphosphoryl)-2^5-(trifluoromethyl)-1^1H-3,5,10-triaza-1(3,6)-indola-2(4,2)-pyrimidina-4(1,3)-cyclohexanacycloundecaphan-11-one], 99.8 nM; to `O=C1NCCCCN[C@H]2CCC(C2)Nc2ncc(C(F)(F)F)c(n2)-c2c[nH]c3c(Cl)c1ccc23` [Compound Z11, (4^1S,43S)-1^7-chloro-2^5-(trifluoromethyl)-1^1H-3,5,10-triaza-1(3,6)-indola-2(4,2)-pyrimidina-4(1,3)-cyclopentanacycloundecaphan-11-one], 186 nM.
Turning to `CN1CCC(F)CN(C)C2CC[C@@H](C2)Nc2ncc(C(F)(F)F)c(n2)-c2c[nH]c3c(P(C)(C)=O)c(ccc23)C1=O` (some centres unmarked) [Compound Z88, (4^1S)-1^7-(dimethylphosphoryl)-7-fluoro-5,10-dimethyl-2^5-(trifluoromethyl)-1^1H-3,5,10-triaza-1(3,6)-indola-2(4,2)-pyrimidina-4(1,3)-cyclopentanacycloundecaphan-11-one], the IC50 in assay [2] was 241 nM. The IC50 values of the last two compounds are within 1.5-fold of each other.
As for `CN1CCOCCNC2CCC(C2)Nc2ncc(C(F)(F)F)c(n2)-c2c[nH]c3c(S(C)(=O)=O)c(ccc23)C1=O` (centres unmarked) [Compound Z72, (4^1S,4^3S)-11-methyl-1^7-(methylsulfonyl)-2^5-(trifluoromethyl)-1^1H-8-oxa-3,5,11-triaza-1(3,6)-indola-2(4,2)-pyrimidina-4(1,3)-cyclopentanacyclododecaphan-12-one], the IC50 in assay [2] is 869 nM.
The compound `CN1CCCCNC(=O)c2ccc3c(c[nH]c3c2P(C)(C)=O)-c2nc(ncc2C(F)(F)F)N[C@H]2CC[C@H]1C2` [Compound Z16, (4^1S,43S)-1^7-(dimethylphosphoryl)-5-methyl-2^5-(trifluoromethyl)-1^1H-3,5,10-triaza-1(3,6)-indola-2(4,2)-pyrimidina-4(1,3)-cyclopentanacycloundecaphan-11-one] returned an IC50 in assay [2] of 23 nM. Compared with the last compound, the IC50 is about 38-fold lower.
On the same count and under the same terms, the figure for `CN1CCCCN(C)[C@H]2CC[C@@H](C2)Nc2ncc(C(F)(F)F)c(n2)-c2c[nH]c3c(P(C)(C)=O)c(ccc23)C1=O` [Compound Z27, (4^1S,4^3S)-1^7-(dimethylphosphoryl)-5,10-dimethyl-2^5-(trifluoromethyl)-1^1H-3,5,10-triaza-1(3,6)-indola-2(4,2)-pyrimidina-4(1,3)-cyclopentanacycloundecaphan-11-one] is 9.7 nM; for `CN1CCOCCNC(=O)c2ccc3c(c[nH]c3c2P(C)(C)=O)-c2nc(ncc2C(F)(F)F)NC2CCC1C2` [Compound Z60, (4^1S,43S)-17-(dimethylphosphoryl)-5-methyl-2^5-(trifluoromethyl)-1^1H-8-oxa-3,5,11-triaza-1(3,6)-indola-2(4,2)-pyrimidina-4(1,3)-cyclopentanacyclododecaphan-12-one] it is 89 nM.

Broadly, the IC50 is the point on the concentration scale where inhibition reaches its midpoint.
